Results taken from patent US20110093959A1, “CRYPTOTIS PARVA SCREENING MODEL FOR ANTIEMETIC POTENTIAL” (priority 2008, published 2011).
Where “and” joins values, the source holds several entries; their conditions need not be identical. Identical values can stand only once.

Tests used:
Type in all cases: in vivo, Cryptotis parva
[1] = tested on: CIS-induced emesis in the Least Shrew; test: Tropisetron, Δ^9-THC and dexamethasone alone or in combination against CIS (20 mg/kg)-induced emesis, 60 min
Description: Briefly, all animals were randomly divided into two groups. On the test day, shrews were habituated to the laboratory environment for at least 1 hr prior to experimentation. […] All drugs were administered at a volume of 0.1 ml/10 g body weight. Immediately following the second injection, each shrew was placed in the observation cage, and both the number of animals vomiting per group and the frequency of vomiting (oral ejections of food or liquid) were recorded for the next 60 min
Poisson regression and logistic regression analyses were employed for two-way analysis of vomiting frequency and protection from emesis, respectively. […] Data regarding the frequency of emesis were analyzed by the Kruskal-Wallis nonparametric one-way analysis of variance (ANOVA), and post hoc analysis by Dunn's multiple comparisons test. The incidence of emesis (number of animals vomiting) was analyzed by Fisher's exact test to determine whether there were differences between groups, and when appropriate, pairwise comparisons were also made. A p value of<0.05 was necessary to achieve statistical significance.

[2] = tested on: CIS-induced vomiting in the Least Shrew; test: THC and SR141716A on CIS (10 mg/kg)-induced vomiting, acute and delayed phase; conditions: CIS 10 mg/kg i.p., Δ^9-THC 2.5 mg/kg i.p., SR141716A 2 mg/kg i.p.
[3] = tested on: Fos; test: Fos expression in the dorsal vagal complex resulting from CIS-induced vomiting
Description: After the appropriate time period for acute or delayed phase vomiting, shrews were anesthetized with a lethal dose of pentobarbital (100 mg/kg) and perfused transcardially via blunted needle with a peristaltic pump. The shrew was perfused with ice cold 4% paraformaldehyde and 5% picric acid in pH 7.4, 0.1 M phosphate buffer (10 min). Brains were removed and stored in 30% sucrose in 0.1 M PB overnight, then embedded in blocks of 12% gelatin in 30% sucrose/PB. The blocks were postfixed for 3 hr in 2% paraformaldehyde/PB, then rinsed and immersed in 30% sucrose/PB until they sank (usually 1-2 hr). The brain block was cut sagittally on a freezing benchtop microtome (Leica) at 30 μm into 5 series, and stored in PB with 0.03% sodium azide.
Immunolabeling was accomplished by blocking a free-floating series with 10% normal horse serum (NHS) and 3% hydrogen peroxide in PB with 0.3% Tri-ton X-100 (TX) for 30 min. After rinsing in PB, tissue was put in sheep anti-Fos polyclonal antibody (Chemicon/Millipore, Temecula, Calif.; 1:600), with 5% NHS and 0.3% TX in PB, and incubated for about 42 hr at room temperature (RT) with gentle shaking. After rinsing in PB, the tissue was placed in biotinylated donkey anti-sheep IgG secondary antibody (Jackson Immunoresearch, West Grove, Pa.; 1:600) diluted in the same diluent described for the primary antibody, and the tissue incubated at RT with shaking for 75 min Tissue was then rinsed and incubated for 60 min in HRP-conjugated avidin-biotin complex (Vector Labs, Burlingame, Calif.; Vectastain kit diluted 1:2) in PB. Tissue was then rinsed twice in PB, then once in imidazole-acetate buffer (0.1 M, pH 7.4), then reacted for 6 min in 0.0006% hydrogen peroxide with 2% nickel ammonium sulfate-enhanced diaminobenzidine (DAB, 0.05% in 0.1 M imidazole-acetate buffer). All reagents for DAB processing were purchased from Sigma-Aldrich. […]

[4] = 1 mg/kg i.p., administered alone
[5] = 5 mg/kg i.p., administered alone
[6] = Δ^9-THC 1 mg/kg with 0.1 mg/kg tropisetron
[7] = Δ^9-THC 5 mg/kg with 0.025 mg/kg tropisetron
[8] = Δ^9-THC 5 mg/kg with 0.1 mg/kg tropisetron
[9] = Δ^9-THC 5 mg/kg with 0.25 mg/kg tropisetron

## CCCCCc1cc(O)c2c(c1)OC(C)(C)[C@@H]1CCC(C)=C[C@@H]21 [Δ^9-THC, Δ^9-tetrahydrocannabinol]
[1]; 0.25 mg/kg i.p., administered alone
  reduction in frequency of CIS-induced emesis: 59.3%
[1]; 0.5 mg/kg i.p., administered alone
  reduction in frequency of CIS-induced emesis: 66.7%
[1]; [4]
  reduction in frequency of CIS-induced emesis: 83.7%
  reduction in percentage of shrews vomiting in response to CIS: 64%
[1]; 2.5 mg/kg i.p., administered alone
  reduction in percentage of shrews vomiting in response to CIS: 83.3% and 83%
[1]; [5]
  reduction in frequency of CIS-induced emesis: 96.7%
  reduction in percentage of shrews vomiting in response to CIS: 92% and 91.6%
[1]; 10 mg/kg i.p., administered alone
  reduction in percentage of shrews vomiting in response to CIS: 100%
[1]; tested combinations of Δ^9-THC and tropisetron
  additive or synergistic effect on percentage of animals vomiting: no additive or synergistic antiemetic effects
[1]; Δ^9-THC 0.25 mg/kg coadministered with 5 mg/kg DEX
  reduction in frequency of vomiting: 55.5%
[1]; Δ^9-THC 0.25 mg/kg in shrews pretreated with 5 mg/kg DEX
  reduction in percentage of shrews vomiting in response to CIS: 42%
[1]; Δ^9-THC 0.25 mg/kg with 0.025 mg/kg tropisetron
  reduction in frequency of CIS-induced emesis: 72.6%
[1]; Δ^9-THC 0.25 mg/kg with 0.1 mg/kg tropisetron
  reduction in frequency of CIS-induced emesis: 69.7%
[1]; Δ^9-THC 0.5 mg/kg with 0.025 mg/kg tropisetron
  reduction in frequency of CIS-induced emesis: 56.1%
[1]; Δ^9-THC 0.5 mg/kg with 0.1 mg/kg tropisetron
  reduction in frequency of CIS-induced emesis: 74.6%
[1]; Δ^9-THC 1 mg/kg with 0.025 mg/kg tropisetron
  reduction in frequency of CIS-induced emesis: 61.6%
[1]; [6]
  reduction in frequency of CIS-induced emesis: 88%
  reduction in number of shrews vomiting: 77%
[1]; Δ^9-THC 1 mg/kg with 0.25 mg/kg tropisetron
  reduction in frequency of CIS-induced emesis: 91%
[1]; Δ^9-THC 2.5 mg/kg with DEX 0.25 mg/kg
  reduction in percentage of shrews vomiting in response to CIS: 77%
[1]; Δ^9-THC 2.5 mg/kg with DEX 1 mg/kg
  reduction in percentage of shrews vomiting in response to CIS: 92%
[1]; Δ^9-THC 2.5 mg/kg with DEX 5 mg/kg
  reduction in percentage of shrews vomiting in response to CIS: 79%
[1]; Δ^9-THC 2.5 mg/kg with DEX 10 mg/kg
  reduction in percentage of shrews vomiting in response to CIS: 77%
[1]; Δ^9-THC 2.5 mg/kg with DEX 20 mg/kg
  reduction in percentage of shrews vomiting in response to CIS: 50%
[1]; [7]
  reduction in frequency of CIS-induced emesis: 86.3%
  reduction in percentage of shrews vomiting in response to CIS: 75%
[1]; [8]
  reduction in frequency of CIS-induced emesis: 97.7%
  reduction in percentage of shrews vomiting in response to CIS: 88%
[1]; [9]
  reduction in frequency of CIS-induced emesis: 100%
  reduction in percentage of shrews vomiting in response to CIS: 100%
[1]; Δ^9-THC 5 mg/kg with DEX 0.25 mg/kg
  reduction in percentage of shrews vomiting in response to CIS: 83%
[1]; Δ^9-THC 5 mg/kg with DEX 1 mg/kg
  reduction in percentage of shrews vomiting in response to CIS: 92%
[1]; Δ^9-THC 5 mg/kg with DEX 5 mg/kg
  reduction in percentage of shrews vomiting in response to CIS: 77%
[1]; Δ^9-THC 5 mg/kg with DEX 10 mg/kg
  reduction in percentage of shrews vomiting in response to CIS: 92%
[1]; Δ^9-THC 5 mg/kg with DEX 20 mg/kg
  reduction in percentage of shrews vomiting in response to CIS: 77%
[1]; Δ^9-THC 10 mg/kg with DEX 0.25 mg/kg
  reduction in percentage of shrews vomiting in response to CIS: 92%
[1]; Δ^9-THC 10 mg/kg with DEX 1 mg/kg
  reduction in percentage of shrews vomiting in response to CIS: 83%
[1]; Δ^9-THC 10 mg/kg with DEX 5 mg/kg
  reduction in percentage of shrews vomiting in response to CIS: 67%
[1]; Δ^9-THC 10 mg/kg with DEX 10 mg/kg
  reduction in percentage of shrews vomiting in response to CIS: 92%
[1]; Δ^9-THC 10 mg/kg with DEX 20 mg/kg
  reduction in percentage of shrews vomiting in response to CIS: 75%
[1]; Δ^9-THC 0.25 and 0.5 mg/kg combined with tropisetron 0.025 and 0.1 mg/kg
  combination efficacy in reducing the frequency of emesis: significantly greater additive efficacy
[1]; Δ^9-THC combined with 1 mg/kg or 5 mg/kg tropisetron
  effect on frequency of emesis: failed to produce significant reductions
[1]; Δ^9-THC combined with DEX, at the doses tested
  additive or synergistic antiemetic activity: no significant additive or synergistic antiemetic activity
[2]; Acute phase
  Number vomited per total in group: 1/8
[2]; Delayed phase
  Number vomited per total in group: 2/9
[3]; acute phase of CIV, NTS, AP and DMNX
  number of Fos-immunopositive nuclei vs vehicle injections: significantly (P<0.05) reduced
[3]; delayed phase, NTS and DMNX
  number of Fos-immunopositive nuclei vs vehicle-injected animals: significantly fewer
